The record followed here is ChEMBL document CHEMBL4017452, “Novel boronic acid derivatives of bis(indolyl) methane as anti-MRSA agents” (2017).

Converted amounts (≈) assume the structure as drawn. The source made the active and inactive calls. No cut-off for these calls is given here.

The subject of the first test is Staphylococcus aureus. Nature of the test: Antibacterial activity against methicillin-resistant Staphylococcus aureus clinical isolates after 18 hrs by CLSI method. It counts as functional.
`O=[N+]([O-])c1ccccc1C(c1c[nH]c2ccccc12)c1c[nH]c2ccccc12` registered an MIC of 500 µg/mL (≈ 1360 µM).

For `OB(O)c1ccc(C(c2c[nH]c3ccccc23)c2c[nH]c3ccccc23)cc1`, the MIC was 7.81 µg/mL (≈ 21.3 µM).

As for `Cc1ccc(C(c2c[nH]c3ccccc23)c2c[nH]c3ccccc23)cc1`, the MIC is over 1000 µg/mL.

The compound `OB(O)c1cccc(C(c2c[nH]c3ccccc23)c2c[nH]c3ccccc23)c1` had an MIC of 3.91 µg/mL (≈ 10.7 µM).

`O=[N+]([O-])c1ccc2[nH]cc(C(c3ccc(Br)cc3)c3c[nH]c4ccc([N+](=O)[O-])cc34)c2c1` gave an MIC of 500 µg/mL (≈ 1020 µM).

The compound `COc1ccc2[nH]cc(C(c3ccc(C)cc3)c3c[nH]c4ccc(OC)cc34)c2c1` showed an MIC of over 1000 µg/mL.

`Brc1ccc2[nH]cc(C(c3ccccc3)c3c[nH]c4ccc(Br)cc34)c2c1` had an MIC of over 1000 µg/mL.

Regarding `COc1ccc2[nH]cc(C(c3ccc([N+](=O)[O-])cc3)c3c[nH]c4ccc(OC)cc34)c2c1`, the MIC was over 1000 µg/mL.

Take `COc1ccc2[nH]cc(C(c3ccc(Br)cc3)c3c[nH]c4ccc(OC)cc34)c2c1`: the MIC is 62.5 µg/mL (≈ 135 µM).

For the compound `COc1ccc2[nH]cc(C(c3ccccc3)c3c[nH]c4ccc(OC)cc34)c2c1`, the MIC was over 1000 µg/mL.

Consider `Cc1ccc(C(c2c[nH]c3ccc([N+](=O)[O-])cc23)c2c[nH]c3ccc([N+](=O)[O-])cc23)cc1`, for which the MIC was over 1000 µg/mL.

For the compound `O=[N+]([O-])c1ccc(N/N=C/c2ccc(C(c3c[nH]c4ccccc34)c3c[nH]c4ccccc34)cc2)c([N+](=O)[O-])c1`, the MIC is 500 µg/mL (≈ 942 µM).

Compound `COc1ccc2[nH]cc(C(c3ccc(C(c4c[nH]c5ccc(OC)cc45)c4c[nH]c5ccc(OC)cc45)cc3)c3c[nH]c4ccc(OC)cc34)c2c1` gave a minimal inhibitory concentration (MIC) of 500 µg/mL (≈ 728 µM).

In turn, `Brc1ccc(C(c2c[nH]c3ccccc23)c2c[nH]c3ccccc23)cc1` yielded an MIC of 500 µg/mL (≈ 1250 µM).

`O=[N+]([O-])c1ccc(C(c2c[nH]c3ccc([N+](=O)[O-])cc23)c2c[nH]c3ccc([N+](=O)[O-])cc23)cc1` displayed an MIC of 31.2 µg/mL (≈ 68.3 µM).

Turning to `COc1ccc2[nH]cc(C(c3ccc(/C=N/Nc4ccc([N+](=O)[O-])cc4[N+](=O)[O-])cc3)c3c[nH]c4ccc(OC)cc34)c2c1`, the MIC was found to be 250 µg/mL (≈ 423 µM).

Turning to `O=[N+]([O-])c1ccc(C(c2c[nH]c3ccccc23)c2c[nH]c3ccccc23)cc1`, the MIC turned out to be 500 µg/mL (≈ 1360 µM).

The compound `O=Cc1ccc(C(c2c[nH]c3ccccc23)c2c[nH]c3ccccc23)cc1` returned an MIC of 500 µg/mL (≈ 1430 µM).

Take `Cc1ccc(C(c2c[nH]c3ccc(Br)cc23)c2c[nH]c3ccc(Br)cc23)cc1`: the MIC is 62.5 µg/mL (≈ 126 µM).

For the compound `c1ccc(C(c2c[nH]c3ccccc23)c2c[nH]c3ccccc23)cc1`, the minimum inhibitory concentration (MIC) was over 1000 µg/mL.

`COc1ccc(C(c2c[nH]c3ccc([N+](=O)[O-])cc23)c2c[nH]c3ccc([N+](=O)[O-])cc23)cc1` returned an MIC of over 1000 µg/mL.

`COc1ccc2[nH]cc(C(c3ccc(N(C)C)cc3)c3c[nH]c4ccc(OC)cc34)c2c1` came in with an MIC of over 1000 µg/mL.

`O=[N+]([O-])c1ccc(C(c2c[nH]c3ccc(Br)cc23)c2c[nH]c3ccc(Br)cc23)cc1`: the minimal inhibitory concentration (MIC) was determined as 15.6 µg/mL (≈ 29.7 µM).

`O=[N+]([O-])c1cccc(C(c2c[nH]c3ccccc23)c2c[nH]c3ccccc23)c1` had an MIC of 15.6 µg/mL (≈ 42.5 µM).

As for `CN(C)c1ccc(C(c2c[nH]c3ccccc23)c2c[nH]c3ccccc23)cc1`, the MIC is over 1000 µg/mL.

`c1ccc2c(C(c3ccc(C(c4c[nH]c5ccccc45)c4c[nH]c5ccccc45)cc3)c3c[nH]c4ccccc34)c[nH]c2c1` gave an MIC of 1000 µg/mL (≈ 1760 µM).

`Brc1ccc(C(c2c[nH]c3ccc(Br)cc23)c2c[nH]c3ccc(Br)cc23)cc1` gave an MIC of 31.2 µg/mL (≈ 55.9 µM).

With `COc1ccc2[nH]cc(C(c3ccccc3[N+](=O)[O-])c3c[nH]c4ccc(OC)cc34)c2c1`, the MIC turned out to be 500 µg/mL (≈ 1170 µM).

`OB(O)c1ccccc1C(c1c[nH]c2ccccc12)c1c[nH]c2ccccc12` came in with an MIC of 3.91 µg/mL (≈ 10.7 µM).

`O=[N+]([O-])c1ccc2[nH]cc(C(c3ccc(C(c4c[nH]c5ccc([N+](=O)[O-])cc45)c4c[nH]c5ccc([N+](=O)[O-])cc45)cc3)c3c[nH]c4ccc([N+](=O)[O-])cc34)c2c1` gave an MIC of 500 µg/mL (≈ 670 µM).

Compound `COc1ccc(C(c2c[nH]c3ccc(OC)cc23)c2c[nH]c3ccc(OC)cc23)cc1` displayed a minimal inhibitory concentration (MIC) of over 1000 µg/mL.

In a further test the test system is Staphylococcus aureus. Nature of the test: Binding affinity to methicillin-resistant Staphylococcus aureus [(Ac)2-L-Lys-D-Ala-/-D-Ala] by isothermal titration calorimetric method.
With `OB(O)c1cccc(C(c2c[nH]c3ccccc23)c2c[nH]c3ccccc23)c1`, the K stood at 242 M⁻¹.

A further test relates to Staphylococcus aureus. In words: Binding affinity to methicillin-resistant Staphylococcus aureus [(Ac)2-L-Lys-D-Ala-/-D-Ala] assessed as change in enthalpy by isothermal titration calorimetric method.
Take `OB(O)c1cccc(C(c2c[nH]c3ccccc23)c2c[nH]c3ccccc23)c1`: the deltaH was -0.0494 kcal/mol.

The next test deals with Staphylococcus aureus. Nature of the test: Bactericidal activity against methicillin-resistant Staphylococcus aureus at 0.8 to 4 ug/ml. It counts as functional.
Take `OB(O)c1cccc(C(c2c[nH]c3ccccc23)c2c[nH]c3ccccc23)c1`: the outcome was Active.

For the compound `OB(O)c1ccccc1C(c1c[nH]c2ccccc12)c1c[nH]c2ccccc12`, the outcome was Active.

A further test has as its system Staphylococcus aureus. Nature of the test: Bactericidal activity against methicillin-resistant Staphylococcus aureus at 1.6 to 8 ug/ml. The test is classed as functional.
Regarding `OB(O)c1ccc(C(c2c[nH]c3ccccc23)c2c[nH]c3ccccc23)cc1`, the outcome was Active.

A further test has as its system Staphylococcus aureus. Nature of the test: Binding affinity to methicillin-resistant Staphylococcus aureus [(Ac)2-L-Lys-D-Ala-/-D-Ala] assessed as change in entropy by isothermal titration calorimetric method.
In the case of `OB(O)c1cccc(C(c2c[nH]c3ccccc23)c2c[nH]c3ccccc23)c1`, the deltaS is -59.5 cal/mol/deg.
